# Results: patent US6894003B2, “Enhancement of the activity of carotenoid biosynthesis inhibitor herbicides” (BASF Aktiengesellschaft, priority 2000, dated 2005)
# Key:
# Assay type in all cases: in vivo
# [1] = test system: Hordeum vulgare (variety Mammut); test: Crop phytotoxicity, winter barley (variety Mammut); conditions: assessed visually
# Description: (§1) Seeds of the monocotyledonous and dicotyledonous test plants are separately mixed with potting soil and planted on top of approximately one inch of soil in separate pint cups. After planting, the cups are subjected to the following treatments:
# (§2) Technical TTP (treatment H) is applied as a dispersion in acetone using a single-nozzle overhead track pneumatic sprayer, while granular or powder formulations (treatments I-K) are applied by shaking the solid granules or powder directly and evenly onto the soil surface.
# The treated cups are then placed on greenhouse benches, watered and cared for in accordance with conventional greenhouse procedures. […]
# [2] = test system: Alopecurus myosuroides; test: Greenhouse pre-emergence weed control, blackgrass; conditions: for Weed Control (20 DAT) ALOMY: vs untreated check
# Description: as §1, §2
# (§3) The treated cups are then placed on greenhouse benches, watered and cared for in accordance with conventional greenhouse procedures. Twenty days after treatment (DAT), the seedling plants are examined, and the % weed control as compared to untreated check is recorded (Table I).
# [3] = test system: Papaver rhoeas; test: Greenhouse pre-emergence weed control, poppy; conditions: vs untreated check
# Description: as §1, §2, §3
# [4] = test system: Matricaria inodora vulgare; test: Greenhouse pre-emergence weed control, Matricaria; conditions: vs untreated check
# Description: as §1, §2, §3
# [5] = test system: Triticum aestivum (variety Kanzler); test: Crop phytotoxicity, winter wheat (variety Kanzler); conditions: assessed visually
# Description: as §1, §2, §3
# [6] = test system: Lolium perenne; test: Greenhouse pre-emergence weed control, ryegrass; conditions: vs untreated check
# Description: as §1, §2, §3
# [7] = test system: Galium aparine; test: Greenhouse pre-emergence weed control, Galium; conditions: for Weed Control (20 DAT) GALAP: vs untreated check
# Description: as §1, §2, §3
# [8] = test system: Veronica persica; test: Greenhouse pre-emergence weed control, Veronica; conditions: vs untreated check
# Description: as §1, §2, §3
# [9] = test system: Setaria viridis; test: Greenhouse pre-emergence weed control, green foxtail; conditions: vs untreated check
# Description: as §1, §2, §3
structure (smiles),measurement,setting,value
"FC(F)(F)c1ccc(-c2nccc(Oc3cccc(C(F)(F)F)c3)n2)cc1 [H, 4-(3-trifluoromethylphenoxy)-2-(4-trifluoromethylphenyl)-pyrimidine]",Crop Phytotoxicity 11 DAT HORVWM,[1]; 0.060 kg/ha,20.0
same,Crop Phytotoxicity 20 DAT HORVWM,[1]; 0.060 kg/ha,15.0
same,Crop Phytotoxicity 11 DAT HORVWM,[1]; 0.120 kg/ha,40.0
same,Crop Phytotoxicity 20 DAT HORVWM,[1]; 0.120 kg/ha,25.0
same,Crop Phytotoxicity 11 DAT HORVWM,[1]; 0.240 kg/ha,42.5
same,Crop Phytotoxicity 20 DAT HORVWM,[1]; 0.240 kg/ha,40.0
same,Crop Phytotoxicity 11 DAT HORVWM,[1]; 0.480 kg/ha,47.5
same,Crop Phytotoxicity 20 DAT HORVWM,[1]; 0.480 kg/ha,45.0
same,Weed Control (20 DAT) ALOMY,[2]; 0.060 kg/ha,22.5%
same,Weed Control (20 DAT) ALOMY,[2]; 0.120 kg/ha,77.5%
same,Weed Control (20 DAT) ALOMY,[2]; 0.240 kg/ha,98.5%
same,Weed Control (20 DAT) ALOMY,[2]; 0.480 kg/ha,99.0%
same,Rate required to control Alopecurus,[2]; greenhouse,240 g/ha
same,Weed Control (20 DAT) PAPRH,[3]; 0.060 kg/ha,99.5%
same,Weed Control (20 DAT) PAPRH,[3]; 0.120 kg/ha,99.5%
same,Weed Control (20 DAT) PAPRH,[3]; 0.240 kg/ha,100.0%
same,Weed Control (20 DAT) PAPRH,[3]; 0.480 kg/ha,100.0%
same,Weed Control (20 DAT) MATIN,[4]; 0.060 kg/ha,98.5%
same,Weed Control (20 DAT) MATIN,[4]; 0.120 kg/ha,99.0%
same,Weed Control (20 DAT) MATIN,[4]; 0.240 kg/ha,99.0%
same,Weed Control (20 DAT) MATIN,[4]; 0.480 kg/ha,100.0%
same,Crop Phytotoxicity 11 DAT TRZAWK,[5]; 0.060 kg/ha,1.0
same,Crop Phytotoxicity 20 DAT TRZAWK,[5]; 0.060 kg/ha,0.5
same,Crop Phytotoxicity 11 DAT TRZAWK,[5]; 0.120 kg/ha,2.5
same,Crop Phytotoxicity 20 DAT TRZAWK,[5]; 0.120 kg/ha,1.0
same,Crop Phytotoxicity 11 DAT TRZAWK,[5]; 0.240 kg/ha,6.5
same,Crop Phytotoxicity 20 DAT TRZAWK,[5]; 0.240 kg/ha,4.5
same,Crop Phytotoxicity 11 DAT TRZAWK,[5]; 0.480 kg/ha,14.0
same,Crop Phytotoxicity 20 DAT TRZAWK,[5]; 0.480 kg/ha,10.0
same,Weed Control (20 DAT) LOLPE,[6]; 0.060 kg/ha,91.5%
same,Weed Control (20 DAT) LOLPE,[6]; 0.120 kg/ha,98.5%
same,Weed Control (20 DAT) LOLPE,[6]; 0.240 kg/ha,99.0%
same,Weed Control (20 DAT) LOLPE,[6]; 0.480 kg/ha,99.0%
same,Weed Control (20 DAT) GALAP,[7]; 0.060 kg/ha,67.5%
same,Weed Control (20 DAT) GALAP,[7]; 0.120 kg/ha,72.5%
same,Weed Control (20 DAT) GALAP,[7]; 0.240 kg/ha,98.0%
same,Weed Control (20 DAT) GALAP,[7]; 0.480 kg/ha,98.0%
same,Rate required to control Galium,[7]; greenhouse,240 g/ha
same,Weed Control (20 DAT) VERPE,[8]; 0.060 kg/ha,99.5%
same,Weed Control (20 DAT) VERPE,[8]; 0.120 kg/ha,100.0%
same,Weed Control (20 DAT) VERPE,[8]; 0.240 kg/ha,100.0%
same,Weed Control (20 DAT) VERPE,[8]; 0.480 kg/ha,100.0%
same,Weed Control (20 DAT) SETVI,[9]; 0.060 kg/ha,96.5%
same,Weed Control (20 DAT) SETVI,[9]; 0.120 kg/ha,100.0%
same,Weed Control (20 DAT) SETVI,[9]; 0.240 kg/ha,100.0%
same,Weed Control (20 DAT) SETVI,[9]; 0.480 kg/ha,100.0%
